Measurements published in US20030157715A1, “Modulation of chromosome function by chromatin remodeling agents” (priority 2000, published 2003).

Experiments:
[1] = tested on: Drosophila histone SAR; assay: DNase I footprinting on SAR probe; type: binding
Experimental: Synthetic oligonucleotides […] and […] were hybridized to obtain the W9 probe, oligomerized by ligation and digested with BamHI and BglII to obtain different tandem repeats. The following oligonucleotides were prepared identically: GAF31 is composed of the oligonucleotides […] and […] and, BrownI of oligonucleotides […] and […]. Fragments were purified on low-melt agarose gels and then cloned into a modified pSP64 vector, cut by BamHI and BglII. End-labeling was carried out following digestion with HindIII and a fill-in reaction with Klenow DNA polymerase. The labeled plasmid was cut with PvuII and the target fragments purified from low-melting agarose gels. The 657 bp EcoR1/Hinf1 fragment of the Drosophila histone SAR was cloned into the SmaI site of the modified pSP64 plasmid. This SAR probe was end-labeled following-digestion with EcoR1, then cut with ClaI and the resulting 347 bp fragment purified from low-melting agarose gels.
All reactions were performed in a total volume of 40 μl. A polyamide stock solution or buffer (for reference lanes) was added to an assay buffer containing 20 kcpm radiolabeled DNA, affording final concentrations of 10 mM Tris-HCl (pH 7.4), 10 mM KCl, 10 MM MgCl, 5 mM CaCl2, 0.5 mM EDTA, 0.5 mM EGTA, 1 mM DTT and 0.1% digitonine. The solutions were allowed to equilibrate for at least 2 h at room temperature. Footprinting reactions were initiated by the addition of 2 μl of a DNase stock solution (containing −100 μg DNase I in buffer) and allowed to proceed for 2 min at room temperature. The reactions were stopped by addition of 10 μl of a solution containing 1.25 M NaCl, 100 mM EDTA. Next, 5 μl of a 1% SDS solution was added, followed by 2 μl of a solution containing 1 μg poly(dA-dT), 1 μg salmon sperm DNA and 10 μg glycogen and the DNA was ethanol precipitated (20 min at −20 C.). The reactions were resuspended in 4 μl of 80% formamide loading buffer, denatured 10 min at 85 C., cooled on ice and electrophoresed on 8% polyacrylamide denaturing gels (5% cross-link, 8 M urea) at 30 W for 1 h. The gels were dried and exposed o/n at −70 C.

[2] = tested on: variegating white reporter transgene flies (C3/2L, BL2/Y); assay: P9 fed to flies with variegating white reporter transgene; type: in vivo, Drosophila melanogaster; conditions: transgene at the basis of chromosome 2L; data not shown
From the text: Although we favor the possibility that P9 and MATH20 reduce the spreading of heterochromatin toward w^m4 through long-range effects, we cannot completely rule out the possibility that a local binding site near the white gene (a local SAR) is involved. We attempted to address this issue by studying the effect of P9 on two different variegating miniwhite reporter genes called C3/2L and BL2/Y (Lu et al., 1996; Wallrath and Elgin, 1995). […] Nevertheless, we consider a local-acting mode less likely; the enormous target size of satellite III, 11 Mb versus 0.5 kb for a typical SAR, favors a long-range spreading model.

[3] = tested on: homozygous bw^D/bw^D flies; assay: P31 fed to developing homozygous brown-dominant flies; type: in vivo; conditions: 40 homozygous bw^D males
[4] = tested on: GAF binding site from the Ubx promoter; assay: DNase I footprinting on Ubx GAF binding site (GAF31 probe); set-up: species or system Drosophila melanogaster; conditions: same probe as bw^D repeats
From the text: A footprint experiment was therefore carried out with this protein. The DNA probe (GAF31) used for this purpose contains besides the (AAGAG)2 motif (the target of P31) a typical promoter proximal GAF binding site derived from the Ubx gene (Biggin et al., 1988). This Ubx site contains the pentameric consensus sequence GAGAG of GAF (Omichinski et al., 1997). […] Selective Staining of GAGAA Satellite V in Nuclei and Polytene Chromosomes:
Synthetic oligonucleotides […] and […] were hybridized to obtain the W9 probe, oligomerized by ligation and digested with BamHI and BglII to obtain different tandem repeats. The following oligonucleotides were prepared identically: GAF31 is composed of the oligonucleotides […] and […] and, BrownI of oligonucleotides […] and […]. Fragments were purified on low-melt agarose gels and then cloned into a modified pSP64 vector, cut by BamHI and BglII. End-labeling was carried out following digestion with HindIII and a fill-in reaction with Klenow DNA polymerase. The labeled plasmid was cut with PvuII and the target fragments purified from low-melting agarose gels. The 657 bp EcoR1/Hinf1 fragment of the Drosophila histone SAR was cloned into the SmaI site of the modified pSP64 plasmid. This SAR probe was end-labeled following-digestion with EcoR1, then cut with ClaI and the resulting 347 bp fragment purified from low-melting agarose gels. […]

[5] = tested on: Ubx^1/+ flies; assay: P31 fed to developing Ubx^1/+ flies; type: in vivo, Drosophila melanogaster
From the text: P31 enhances haltere-to-wing transformation in heterozygous bw^D/bw; Ubx^1/+ flies: The GAGA factor is know to bind to the promoter of Ubx and to stimulate its transcription in vitro (Biggin and Tjian, 1988) The Trl locus also genetically interacts with Ubx, since Trl^13C dominantly enhances the segmental transformation observed in Ubx heterozygotes. […] We asked, does P31 also chemically mimic the genetic interaction of Ubx and Trl^13C? To address this issue, we fed P31 to two genotypes, +/+; Ubx/+ and bw^D/bw^D; Ubx^1/+. The latter genotype was obtained by crossing bw^D/bw^D; st/st females and bw^D/bw^D Ubx^1/Tm3, sb males.
(§1) The lethality of the progenies was calculated by counting the dead bodies and the total empty pupal shells. The A6 to A5 transformation was detected by bristles that form on abdominal segment A6 on males. All male adult flies obtained (˜50) were scored. Sex combs and halteres were individually inspected and photographed under the microscope (Axiophot, Zeiss) after dissecting at least 30 individuals and incubating them into 30 μl of 0.6 g/ml gum arabic; 4 g/ml chlorohydrate; 35% glycerol under a 24×24 mm coverslip as described (Ashburner, 1989). Since raising double heterozygous flies (Ubx^1/+; bw^D/+) led to lethality, we morphologically dissected eight late stage pupae after carefully removing the pupal envelope.

[6] = tested on: homozygous bw^D/bw^D flies; assay: P31 fed to developing homozygous brown-dominant flies; type: in vivo
Experimental: These experiments established a remarkable molecular interplay between the GAGAA insert of the bw^D allele and its target-compound P31.
Drug treatments of the bw^D flies were performed as for w^m4 flies except that 30 parental females were allowed to lay eggs. To obtain the heterozygous bw^D/+; st/st progeny, 30 virgin bw^D/bw^D; st/st homozygous females were mated with scarlet homozygous males for about 5 days before transferring them to experimental vials for egg laying.
as §1

[7] = fly stock of r12, bw^D/bw^+, homozygous per text

Row | SMILES | Ratio ([1]; Kdapp W9 / Kdapp SAR (SAR specificity factor)) | Kd ([1]; apparent binding affinity, DNase I footprinting, SAR probe, read-out: Kdapp SAR) | suppression of PEV of a variegating white reporter transgene [2] | mean number of bristles on A6 [3] | ligand concentration up to which no binding is noted at the Ubx GAF site [4] | A6 to A5 ([5]; fly stock Ubx^1/+) | Lethality ([5]; fly stock Ubx^1/+) | Sex comb (mean) ([5]; fly stock Ubx^1/+) | Sex comb, range of teeth ([5]; fly stock Ubx^1/+) | alteration of phenotype (in words) ([5]; progeny of Ubx^1/+ flies) | A6 to A5 [6, 7] | Lethality [6, 7] | Sex comb, range of teeth [6, 7] | Sex comb (mean) ([6]; fly stock of r12, bw^D/bw^+, text: homozygous) | A6 to A5, number of bristles on A6 ([6]; fly stock of r12, bw^D/bw^+, text: homozygous bw^D males) | sex comb teeth, number mostly found ([6]; homozygous bw^D) | progeny that died at the pupal stage ([6]; homozygous bw^D flies) | Pupae delay (hrs) ([6]; in vivo) | delay of hatching ([6]; in vivo)
1 | CN(C)CCCNC(=O)CCNC(=O)c1cc(NC(=O)c2cc(NC(=O)c3cc(NC(=O)CCNC(=O)c4cc(NC(=O)c5cc(NC(=O)c6cccn6C)cn5C)cn4C)cn3C)cn2C)cn1C [Compound P9, PyPyPy-β-PyPyPy-β-Dp] | 1.4 | 0.55 nM | did not suppress PEV | – | – | – | – | – | – | – | – | – | – | – | – | – | – | – | –
2 | CN(C)CCCNC(=O)CCNC(=O)c1nc(NC(=O)CCNC(=O)c2nc(NC(=O)CCNC(=O)c3cc(NC(=O)c4nc(NC(=O)CCNC(=O)c5nccn5C)cn4C)cn3C)cn2C)cn1C [Compound P31, Im-β-Im-Py-β-Im-β-Im-β-Dp] | – | – | – | 6 | > 25 nM | 0% | 10% | 10.3 | 8-12 | no altered phenotype | 100% | 66% | 6-9 | 7.2 | 3-10 | 6 | about two thirds | ≥ 65 hrs-∞ | 65 to 75 h
